Laboratory results from ChEMBL document CHEMBL1136826, “A new synthesis of cytoxazone and its diastereomers provides key initial SAR information” (Bioorg Med Chem Lett, 2003).

Legend:
[1] = Inhibitory activity against IL-2 on stimulated human peripheral blood mononuclear cells at 30 uM concentration; format: functional
[2] = Inhibitory activity against IL-5 on stimulated human peripheral blood mononuclear cells at 30 uM concentration; format: functional
[3] = Inhibitory activity against IL-10 on stimulated human peripheral blood mononuclear cells at 30 uM concentration; format: functional
[4] = species: Mus musculus; assay: Inhibitory activity against blockage secretion of IL-10 in pokeweed mitogen (PWN)-stimulated murine splenocytes; format: functional, organism-based
[5] = Inhibitory activity against IL-4 on stimulated human peripheral blood mononuclear cells at 30 uM concentration; format: functional

COc1ccc([C@H]2NC(=O)O[C@H]2CO)cc1
inhibition at 30 µM [1]: 19%
inhibition at 30 µM [2]: 66%
inhibition at 30 µM [3]: 94%
IC50 [4]: 10 µM
inhibition at 30 µM [5]: 73%
